test system: gegen Progesteron-11α-bernsteinsäurehalbester-ovalbumin erzeugten Antiserum; experiment: Cross-reactivity of steroids in the radioimmunoassay for progesterone (competitive binding, 125I-labelled progesterone-3 tracer, charcoal separation); set-up: species or system Kaninchen; conditions: relative to Progesteron = 100; acid buffer; heterologous system (11α-protein conjugate antiserum, 3-iodinated tracer)
Source text: Die vorliegende Erfindung stellt ein Radioimmunobesteck und eine Bestimmungsmethode für Progesteron zur Verfügung, welche dadurch gekennzeichnet ist, daß man in saurem Medium, vorzugsweise einem sauren Puffer, eine Flüssigkeitsprobe mit einer bekannten Menge von gegen ein Progesteron/Proteinkonjugat erzeugten Antikörpern, wobei das Protein über eine Brückengruppe in 11-Stellung, im allgemeinen 11α-Stellung, an das Progesteron gebunden ist, und mit einer bekannten Menge eines Progesteronderivats,das in 3-Stellung über eine Brücke mit einem Rest substituiert ist, welcher ein oder mehrere Atome eines Jodradioisotops trägt, inkubiert, . das in dem entstandenen Antikörper /Antigenkomplex gebundene Steroid von der freien Steroidkomnonente abtrennt und deren Radioaktivität oder die des Antikörper/Antigenkomplexes mißt. Im allgemeinen wird das Antiserum zuletzt zugesetzt, und der Indikator wird vorzugsweise zum Standard bzw. zur Probe gegeben.
Wie oben erwähnt ist die eigentliche Bestimmung eine herkömmliche radioimmunologische Bestimmung mit Bindungskonkurrenz, d.h. sie ist abhängig von der Konkurrenz zwischen unmarkiertem Progesteron und einem radiojodierten Progesteronderivat um die Bindungsstellen eines progesteronspezifischen Antikörpers. Der an den Antikörper gebundene Anteil an jodiertem Progesteron ist der Menge des vorhandenen unmarkierten Progesterons umgekehrt proportional. Dieser Anteil wird dadurch gemessen, daß man die gebundenen und freien Komponenten trennt, im allgemeinen durch Adsorption der letzteren, und die Radioaktivität der einen oder der anderen mißt.
Die bevorzugte Reagenzienkombination für die erfindungsgemäße Bestimmungsmethode besteht aus einem gegen Progesteron-11α-bernsteinsäurehalbester-ovalbumin erzeugten Antiserum und Progesteron-3-(0-carboxymethyl)-oxim-[^125J]-jodhistamin. J]-jodhistamin.
Die Bestimmung wird auf herkömmliche Weise durchgeführt, beispielsweise erstellt man einen Satz Röhrchen, die jeweils ein Aliquot an 3-jodiertem Indikator und entweder eine bekannte Menge einer Standardprogestercnlösung in einem geeigneten, von Steroid befreiten Verdünnungsmittel oder eine unbekannte Probe enthalten. Vorzugsweise gibt man den Indikator zum Standard oder zur Probe. Ein Aliquot des Antiserums wird in jedes Röhrchen gegeben, dessen Inhalt gut vermischt und stehengelassen wird, vorzugsweise bei 0 - 4°C. Die Bestimmung läßt sich jedoch auch bei höheren Temperaturen, z.B. Raumtemperatur oder 37°C, durchführen. Nach Ablauf einer gewissen Zeit, vorzugsweise 21/2 - 5 Stunden, wird jedem Röhrchen ein Aliquot eines Trennmittels zugesetzt. Das Trennmittel ist beispielsweise ein zweiter Antikörper oder (NH4)2S04, jedoch vorzugsweise Aktivkohle. Man läßt dem Trennmittel genügend Zeit, um das freie Steroid zu binden, trennt es vom Rest des Röhrcheninhalts, im Falle von Aktivkohle vorzugsweise durch Zentrifugieren, und bestimmt die Radioaktivität der festen oder flüssigen Phase. Im Falle von Aktivkohle als Adsorptionsmittel wird vorzugsweise die feste Phase, d.h. die Radioaktivität des freien (nichtantikörpergebundenen) jodierten Indikators gemessen.Andernfalls kann man eine Probe der überstehenden flüssigen Phase nehmen und zählen. Man erstellt eine Standardkurve, und die in der Probe vorliegende Menge Progesteron kann aus der Kurve interpoliert werden.
Die Kreuzreaktivität verschiedener Steroide bei der erfindungsgemäßen Bestimmungsmethode ist unten angegeben.

SMILES | % Kreuzreaktivität
CC(=O)[C@H]1CC[C@H]2[C@@H]3CCC4=CC(=O)CC[C@]4(C)[C@H]3CC[C@]12C [Progesteron] | 100%
C[C@H](O)[C@H]1CC[C@H]2[C@@H]3CC[C@@H]4C[C@H](O)CC[C@]4(C)[C@H]3CC[C@]12C [5ß-Pregnan-3α, 20α-diol] | 0,7%
C[C@]12C[C@H](O)[C@H]3[C@@H](CCC4=CC(=O)CC[C@@]43C)[C@@H]1CC[C@@H]2C(=O)CO [Corticosteron] | 2,7%
CC(=O)[C@H]1CC[C@H]2[C@@H]3CC[C@@H]4C[C@H](O)CC[C@]4(C)[C@H]3CC[C@]12C [5ß-Pregnan-3α-01-20-on] | 8,0%
CC(=O)[C@H]1CC[C@H]2[C@@H]3CC=C4C[C@@H](OS(=O)(=O)O)CC[C@]4(C)[C@H]3CC[C@]12C [Pregnenolonsulfat] | 0,4%
C[C@H](O)[C@H]1CC[C@H]2[C@@H]3CCC4=CC(=O)CC[C@]4(C)[C@H]3CC[C@]12C [20α-Hydroxyprogesteron] | 0,25%
CC(=O)[C@@]1(O)CC[C@H]2[C@@H]3CCC4=CC(=O)CC[C@]4(C)[C@H]3CC[C@@]21C [17α-Hydroxyprogesteron] | 1,3%
CC(=O)[C@H]1CC[C@H]2[C@@H]3CC=C4C[C@@H](O[C@@H]5O[C@H](C(=O)O)[C@@H](O)[C@H](O)[C@H]5O)CC[C@]4(C)[C@H]3CC[C@]12C [Pregnenolonglucuronid] | 10,0%
CC(=O)[C@H]1CC[C@H]2[C@@H]3CC=C4C[C@@H](O)CC[C@]4(C)[C@H]3CC[C@]12C [Pregnenolon] | 10,5%
C[C@]12CC[C@H]3[C@@H](CCC4=CC(=O)CC[C@@]43C)[C@@H]1CC[C@@H]2C(=O)CO [Desoxycorticosteron] | 0,01%
CC(=O)[C@H]1CC[C@H]2[C@@H]3CC[C@H]4CC(=O)CC[C@]4(C)[C@H]3CC[C@]12C [5α-Pregnan-3,20-dion] | 6,0%

Reference: patent publication EP0031926A2, “Radioimmunological set for the determination of progesterone and its use, and radioimmunoassay method for the determination of progesterone” (HOECHST AKTIENGESELLSCHAFT, priority 1979, dated 1981)
